Measured values reported in patent US11667630B2, “Nitrogen-containing 6-membered cyclic compound” (Asahi Kasei Pharma Corporation, priority 2017, dated 2023).

Key:
rat femur = assay: Neo-osteogenesis action in rat femur; assay type: in vivo; conditions: female SD rats, one week after administration; for Bone mineral content of femur 1/3 center region (mg) Left femur (administered with compound): 100 μg test compound in in situ-solidified gel solution injected between quadriceps and periosteum; for Bone mineral content of femur 1/3 center region (mg) Right femur (no administration of compound): contralateral femur, 100 μg test compound given at left femur
Procedure: Eight weeks old female SD rats (Charles River Japan) were fixed in the side lying position under triple anesthesia (medetomidine hydrochloride, midazolam, and butorphanol tartrate). After hair of the left femoral region was shaved with a hair clipper, and disinfection treatment was performed with 70% ethanol, an in situ-solidified gel solution of a test compound, specifically, a test compound dissolved in poly(lactic-co-glycolic acid) (RESOMER RG502H, produced by Evonik Industries)/poly(lactic-co-glycolic acid)-polyethylene glycol block copolymer (5050 DLG mPEG 5000, produced by Lakeshore Biomaterials)/N-methyl-2-pyrroridone (produced by Wako) (weight ratio 47%/3%/50%), was filled in a 1-mL syringe, a 21G injection needle was attached to the syringe, and the needle was transdermally stabbed from the quadriceps to the periosteum near the center of the femoral diaphyseal. Then, 100 μg as the amount of the test compound, or 50 μL as the administration volume of the solution was injected between the quadriceps and the periosteum, and the injection needle was drawn out. To the rats of the control group, the aforementioned in situ-solidified gel solution alone was administered. One week after the administration of the drug solution, the triple anesthesia was given to the animals, and they were fixed in the supine position, and euthanized by bleeding. […], circumferential tissues such as muscles were removed, the bone mineral content of the whole femur was measured by using a bone mineral analyzer DCS-600EX (produced by ALOKA), then it was divided into three portions along the long axis, and the bone mineral content of the center part (diaphysis) was evaluated. The test was performed with the groups each consisting of 6 animals.

human EP4 receptor [1] = target: T1, human EP4 receptor (Homo sapiens, UniProt P35408); assay: Measurement of EP4 agonist activity (cAMP production); assay type: cell-based; design: expressed in transfected cells; host or cells: HEK293; conditions: cAMP production in HEK293 cells stably expressing human EP4 receptor; average values where measured two or more times
T1 sequence (P35408 whole entry): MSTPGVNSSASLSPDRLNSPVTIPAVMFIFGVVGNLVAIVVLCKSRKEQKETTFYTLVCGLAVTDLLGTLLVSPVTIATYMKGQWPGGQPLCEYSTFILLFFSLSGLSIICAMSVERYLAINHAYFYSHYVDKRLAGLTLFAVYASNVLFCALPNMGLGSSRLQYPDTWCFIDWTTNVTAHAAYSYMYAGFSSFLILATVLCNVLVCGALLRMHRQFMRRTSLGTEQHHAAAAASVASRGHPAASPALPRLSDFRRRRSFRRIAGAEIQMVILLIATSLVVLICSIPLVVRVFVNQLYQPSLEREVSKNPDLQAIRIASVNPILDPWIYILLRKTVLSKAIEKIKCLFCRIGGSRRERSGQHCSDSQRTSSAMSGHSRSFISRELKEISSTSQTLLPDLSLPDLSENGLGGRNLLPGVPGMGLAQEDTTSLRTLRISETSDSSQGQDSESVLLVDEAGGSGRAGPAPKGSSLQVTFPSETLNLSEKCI
Procedure: In order to investigate EP4 receptor agonist activity of the compounds of the present invention, production of cAMP was measured in HEK293 cells that were made to stably express the human EP4 receptor.
By using Refseq Database, prostaglandin E receptor was searched for. As a result, gene information of human EP4 (NM_000958) receptor was obtained. On the basis of this sequence information, the human EP4 receptor gene was cloned by PCR in a conventional manner using human cDNA as the template, and HEK293 cells that were made to stably express the human EP4 receptor were established. When cryopreserved cells of this strain were thawed and used, cells subcultured three times or more within a certain period of time (about 1 to 2 weeks) by using Dulbecco's Modified Eagle's Medium (Dulbecco's Modified Eagle's Medium may be henceforth abbreviated as DMEM) containing 10% FBS, 50 units each of penicillin and streptomycin were used. The subcultured cells were inoculated in wells of a poly-D-lysine-coated 96-well plate at a density of 2×10^4 to 2.5×10^4 cells/well, and cultured for one day. The medium in the wells was removed by suction, then DMEM (80 μL) was added to each well, and incubation was performed at 37° C. for 15 minutes. […] The reaction was allowed at 37° C. for 30 minutes, then the medium was removed by suction, Assay/Lysis Buffer (100 μL) contained in cAMP Screen Kit (produced by Applied Biosystems) was added to terminate the reaction. Then, the reaction mixture was incubated at 37° C. for 30 minutes to prepare a sample for quantification of cAMP, and the amount of cAMP in the sample was quantified according to the method indicated in cAMP Screen Kit. By non-linear regression of the compound concentration and the amount of cAMP, the concentration of the compound required for increasing cAMP to 50% of the maximum increase (EC50 value) was calculated by using the Kaleida Graph.

human EP3 receptor = target: T2, human EP3 receptor (Homo sapiens, UniProt P43115); assay: Receptor binding test, [3H]PGE2 binding inhibition, EP3; conditions: [3H]PGE2 1.54 nmol/L, membrane fraction HTS092M, 25°C 60 minutes
T2 construct: purchased Merck Millipore HTS092M
T2 sequence (P43115 1-390): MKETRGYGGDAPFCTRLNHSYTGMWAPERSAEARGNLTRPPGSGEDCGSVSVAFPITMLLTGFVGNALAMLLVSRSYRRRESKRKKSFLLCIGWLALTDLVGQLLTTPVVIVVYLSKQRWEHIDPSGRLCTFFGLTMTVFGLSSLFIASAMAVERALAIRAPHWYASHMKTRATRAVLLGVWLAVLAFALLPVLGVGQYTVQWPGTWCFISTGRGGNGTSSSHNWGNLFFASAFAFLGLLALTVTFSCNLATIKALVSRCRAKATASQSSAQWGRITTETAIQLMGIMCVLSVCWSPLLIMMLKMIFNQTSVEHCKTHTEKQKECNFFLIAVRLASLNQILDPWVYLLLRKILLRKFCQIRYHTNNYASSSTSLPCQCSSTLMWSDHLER
Procedure: (§1) In order to evaluate selectivity to each EP receptor subtype, [^3H]PGE2 binding-inhibition activities of test compounds for cell membranes on which human EP2, human EP3, and human EP4 receptors were stably expressed were measured.
(§2) As the membrane fractions of the prostaglandin E receptors EP2, EP3, and EP4, 10.0 μg protein/tube each of HTS185M, HTS092M, and HTS142M of Merck Millipore were used, respectively. Each membrane fraction was incubated with a reaction mixture (250 μL/tube) containing a test compound and [3H]PGE2 at 25° C. for 60 minutes. […] After the reaction, the membrane fraction was collected on filter paper by using a cell harvester, the filter paper was transferred to a measurement vial, and the measurement was performed on a liquid scintillation counter.
(§3) The nonspecific binding was determined as binding observed in the presence of excess amount (10 μM) of unlabeled PGE2. The measurement of the [3H]PGE2 binding-inhibiting activity of a test compound was performed by adding the test compound at various concentrations. The following buffers were used for the reaction.
Buffer for EP3: 50 mmol/L Tris-HCl buffer containing 10 mmol/L MgCl2, and 1 mmol/L EDTA

human EP2 receptor = target: T3, human EP2 receptor (Homo sapiens, UniProt P43116); assay: Receptor binding test, [3H]PGE2 binding inhibition, EP2; conditions: [3H]PGE2 2.56 nmol/L, membrane fraction HTS185M, 25°C 60 minutes
T3 construct: purchased Merck Millipore HTS185M
T3 sequence (P43116 whole entry): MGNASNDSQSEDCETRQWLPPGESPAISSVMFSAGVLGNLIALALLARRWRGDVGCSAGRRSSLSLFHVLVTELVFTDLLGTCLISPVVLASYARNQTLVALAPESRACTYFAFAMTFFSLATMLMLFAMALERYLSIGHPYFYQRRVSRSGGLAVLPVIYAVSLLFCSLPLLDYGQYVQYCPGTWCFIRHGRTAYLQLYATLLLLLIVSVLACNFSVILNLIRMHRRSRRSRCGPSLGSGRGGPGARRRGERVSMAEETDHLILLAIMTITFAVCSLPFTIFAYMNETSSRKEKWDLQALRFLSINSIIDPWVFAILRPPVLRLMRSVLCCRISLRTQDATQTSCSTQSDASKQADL
Procedure: as §1, §2, §3
Buffer for EP2: 50 mmol/L HEPES-NaOH (pH 7.4) containing 5 mmol/L MgCl2, 1 mmol/L CaCl2), and 0.2% BSA

human EP4 receptor [2] = target: T1, human EP4 receptor; assay: Receptor binding test, [3H]PGE2 binding inhibition, EP4; design: purchased Merck Millipore HTS142M; conditions: [3H]PGE2 1.24 nmol/L, membrane fraction HTS142M, 25°C 60 minutes
Procedure: as §1, §2, §3
Buffer for EP4: 50 mmol/L HEPES-NaOH (pH7.4) containing 5 mmol/L MgCl2, 1 mmol/L CaCl2), and 0.2% BSA

Row | Compound | Bone mineral content of femur 1/3 center region (mg) Left femur (administered with compound) (rat femur) [mg] | Bone mineral content of femur 1/3 center region (mg) Right femur (no administration of compound) (rat femur) [mg] | EC50 (human EP4 receptor [1]) [nM] | IC50 (human EP3 receptor) [nM] | IC50 (human EP2 receptor) [nM] | IC50 (human EP4 receptor [2]) [nM]
1 | Cc1cc(C#Cc2cccc(CC(O)CCN3CCSC(=O)N3CCc3ccc(C(=O)O)s3)c2)cs1 (stereo not drawn) [Example 6, 5-(2-(4-(3-Hydroxy-4-(3-((5-methylthiophen-3-yl)ethynyl)phenyl)butyl)-2-oxo-1,3,4-thiadiazinan-3-yl)ethyl)thiophene-2-carboxylic acid] | 81.3 ± 3.6 | 64.7 ± 2.4 | 0.56 | – | – | –
2 | O=C(O)c1ccc(CCN2C(=O)SCCN2CCC(O)Cc2cccc(C#Cc3ccoc3)c2)s1 (stereo not drawn) [Example 10, 5-(2-(4-(4-(3-(Furan-3-ylethynyl)phenyl)-3-hydroxybutyl)-2-oxo-1,3,4-thiadiazinan-3-yl)ethyl)thiophene-2-carboxylic acid] | 78.0 ± 1.5 | 61.1 ± 0.5 | 0.065 | – | – | –
3 | O=C(O)c1ccc(CCN2C(=O)SCCN2CCC(O)Cc2cccc(C#Cc3nccs3)c2)s1 (stereo not drawn) [Example 13, 5-(2-(4-(3-Hydroxy-4-(3-(thiazol-2-ylethynyl)phenyl)butyl)-2-oxo-1,3,4-thiadiazinan-3-yl)ethyl)thiophene-2-carboxylic acid] | 82.0 ± 3.4 | 65.5 ± 2.7 | 0.34 | – | – | –
4 | Cc1cc(C#Cc2ccsc2)cc(CC(O)CCN2CCSC(=O)N2CCc2ccc(C(=O)O)s2)c1 (stereo not drawn) [Example 19, 5-(2-(4-(3-Hydroxy-4-(3-methyl-5-(thiophen-3-ylethynyl)phenyl)butyl)-2-oxo-1,3,4-thiadiazinan-3-yl)ethyl)thiophene-2-carboxylic acid] | 85.8 ± 2.3 | 59.6 ± 1.4 | 0.1 | – | – | –
5 | O=C(O)c1ccc(CCN2C(=O)SCCN2CCC(O)Cc2ccc(F)c(C#Cc3ccsc3)c2)s1 (stereo not drawn) [Example 20, 5-(2-(4-(4-(4-Fluoro-3-(thiophen-3-ylethynyl)phenyl)-3-hydroxybutyl)-2-oxo-1,3,4-thiadiazinan-3-yl)ethyl)thiophene-2-carboxylic acid] | 79.4 ± 5.2 | 58.7 ± 3.6 | 0.07 | – | – | –
6 | O=C(O)c1ccc(CCN2C(=O)SCCN2CCC(O)Cc2cc(C#Cc3ccsc3)cs2)s1 (stereo not drawn) [Example 22, 5-(2-(4-(3-Hydroxy-4-(4-(thiophen-3-ylethynyl)thiophen-2-yl)butyl)-2-oxo-1,3,4-thiadiazinan-3-yl)ethyl)thiophene-2-carboxylic acid] | 79.5 ± 1.9 | 60.3 ± 2.7 | 0.055 | – | – | –
7 | O=C(O)c1ccc(CCN2C(=O)SCCN2CC[C@@H](O)Cc2cccc(C#Cc3cscn3)c2)s1 [Example 25, (S)-5-(2-(4-(3-Hydroxy-4-(3-(thiazol-4-ylethynyl)phenyl)butyl)-2-oxo-1,3,4-thiadiazinan-3-yl)ethyl)thiophene-2-carboxylic acid] | 79.1 ± 4.0 | 61.0 ± 2.1 | 0.095 | > 1000 | > 1000 | 10.9
8 | O=C(O)c1ccc(CCN2C(=O)SCCN2CC[C@@H](O)Cc2cccc(C#Cc3ccoc3)c2)s1 [Example 26, (S)-5-(2-(4-(4-(3-(Furan-3-ylethynyl)phenyl)-3-hydroxybutyl)-2-oxo-1,3,4-thiadiazinan-3-yl)ethyl)thiophene-2-carboxylic acid] | 87.0 ± 1.6 | 65.9 ± 1.2 | 0.17 | > 1000 | > 1000 | 16.2
